Test results reported in patent US20050277625A1, “Estriol and estetrol prodrugs” (priority 2004, published 2005).

Experiments:
erythrocytes = assay: Binding to erythrocytes: displacement of 14C-estradiol sulfamate; set-up: species or system Human; conditions: for RBA to Erythrocytes: human blood, relative to estradiol-3-sulfamate = 100; for bonds to erythrocytes (in words): m-substituted compounds
Description: The SO2—NH2 group of the substances according to the invention can result in a concentration in erythrocytes by binding to carboanhydrases. The displacement of estradiol-3-sulfamate from the erythrocyte bond by test substances is measured.
Test preparation: Human blood is mixed with a mixture that consists of ^14C-labeled and unlabeled estradiol sulfamate. The erythrocytes are saturated at the selected working point, and the distribution in plasma/erythrocytes is 40:60. A second blood sample is mixed with a mixture that consists of ^14C-labeled estradiol sulfamate and unlabeled test substance. The relative binding affinity is calculated from the proportion of ^14C-labeled estradiol sulfamate in plasma: higher proportion=strong displacement of ^14C-estradiol sulfamate from the erythrocytes by the test substance=high binding affinity.

[1] = tested on: angiotensinogen, total cholesterol and HDL cholesterol in serum; assay: Hepatic effects in ovariectomized rats (estrogen-modulated factors of hepatic secretion in serum); conditions: for Angiotensin 1 ED50 (dose which produces an increase by 50% vs. OVX control) / HDL Cholesterol ED50 (dose which produces a drop by 50% vs. OVX control) / Total Cholesterol ED50 (dose which produces a drop by 50% vs. OVX control): oral, days 1-3, serum
Description: (§1) Table 1 illustrates the estrogenic activity in the case of oral administration and liver toxicity (hepatic effects) based on data of selected compounds in in-vivo tests with rats.
(§2) Adult Wistar rats are ovariectomized and are brought into the test after a 14-day waiting period. The animals are then treated for over three days (days 1-3) and then sacrificed (day 4). Then, the organ weights are determined and estrogen-modulated factors of hepatic secretion in serum are determined, which in the rat are the increase of angiotensinogen and the drop in total cholesterol and HDL cholesterol.

Human Carboanhydrase I = Human Carboanhydrase I (Homo sapiens, UniProt P00915); assay: Inhibition of carboanhydrase I (CO2 hydration); assay type: biochemical; conditions: read-out: CAI IC50
Description: Carboanhydrases catalyze the CO2 hydration.
Test preparation: A constant CO2 stream is directed by a buffer that was mixed with carboanhydrase I. The time that is required to reduce the pH within defined limits is a measuring parameter. This parameter reflects the formation of H2CO3 in the medium. IC50 inhibiting values are determined by test substances being pipetted into the test preparation.

uterus weight = assay: Estrogenic activity in ovariectomized rats, oral administration (uterus weight); assay type: in vivo, Wistar rats; conditions: for Uterus Weight UVD (Uterus Doubling Dose vs. OVX): treatment days 1-3, sacrifice day 4
Description: as §1, §2

uterus and vagina weight = assay: Interaction of estrogens with progesterone in uterus and vagina of ovariectomized guinea pigs; assay type: in vivo; conditions: OVX guinea pigs, 7 days s.c., with 3.0 mg progesterone per animal per day
From the text: Adult guinea pigs were ovariectomized and treated for 2 weeks after this operation over 7 days with estradiol or estriol over a large dose range. […] The effects of this treatment on the genital organs was raised on the 8th test day.

[2] = female, Wistar, rat, in vivo, 3 days
[3] = rats, oral, compared with compound 10 or compound 1

Sequence of Human Carboanhydrase I (P00915 whole entry): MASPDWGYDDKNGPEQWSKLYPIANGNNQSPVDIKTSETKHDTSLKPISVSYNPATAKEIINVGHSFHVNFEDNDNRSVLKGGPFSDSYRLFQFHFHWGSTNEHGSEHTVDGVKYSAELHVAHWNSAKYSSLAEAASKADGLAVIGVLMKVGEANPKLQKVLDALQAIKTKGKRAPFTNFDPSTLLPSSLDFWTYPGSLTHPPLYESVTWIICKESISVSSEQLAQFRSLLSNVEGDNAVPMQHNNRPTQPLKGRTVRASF

Compound	RBA to Erythrocytes (erythrocytes)	bonds to erythrocytes (in words) (erythrocytes)	Angiotensin 1 ED50 (dose which produces an increase by 50% vs. OVX control) ([1]; OVX rats) [μg/T/T]	HDL Cholesterol ED50 (dose which produces a drop by 50% vs. OVX control) ([1]; OVX rats) [μg/T/T]	Total Cholesterol ED50 (dose which produces a drop by 50% vs. OVX control) ([1]; OVX rats) [μg/T/T]	rel. hep. Akt. (relative hepatic activity vs. uterotropic activity), Angiotensin 1 [1, 2]	rel. hep. Akt. (relative hepatic activity vs. uterotropic activity), HDL Cholesterol [1, 2]	rel. hep. Akt. (relative hepatic activity vs. uterotropic activity), Total Cholesterol [1, 2]	IC50 (Human Carboanhydrase I) [nM]	Uterus Weight UVD (Uterus Doubling Dose vs. OVX) (uterus weight; OVX rats, oral) [μg/T/T]	estrogenic activity in the case of oral administration (uterus weight; [3])	oral bioavailability (uterus weight; [3])	rel. hep. Akt. (relative hepatic activity vs. uterotropic activity), HDL Cholesterol ([1]; OVX rats, HDL cholesterol ED50 relative to UVD)	rel. hep. Akt. (relative hepatic activity vs. uterotropic activity), Angiotensin 1 ([1]; OVX rats, angiotensin 1 ED50 relative to UVD)	rel. hep. Akt. (relative hepatic activity vs. uterotropic activity), Total Cholesterol ([1]; OVX rats, total cholesterol ED50 relative to UVD)	uterotropic actions in combination with progesterone (uterus and vagina weight; uterus)	increase in weight of the vagina in combination with progesterone (uterus and vagina weight; vagina)	increase of the uterus weight (doubling) (uterus weight; OVX rats, estriol even at very high dosages)
C[C@]12CC[C@@H]3c4ccc(O)cc4CC[C@H]3[C@@H]1C[C@@H](O)[C@@H]2OC(=O)c1cccc(S(N)(=O)=O)c1 [Compound 7, 3,16α-Dihydroxyestra-1,3,5(10)-trien-17β-yl 3′-sulfamoylbenzoate]	0.5	only very weak bonds were detected	8.9	6.0	4.8	0.06	0.04	0.03	600	137.5	higher estrogenic activity	higher						
C[C@]12CC[C@@H]3c4ccc(O)cc4CC[C@H]3[C@@H]1C[C@@H](O)[C@@H]2OC(=O)c1ccc(S(N)(=O)=O)cc1 [Compound 1, 3,16α-Dihydroxyestra-1,3,5(10)-trien-17β-yl 4′-sulfamoylbenzoate]			17.4	45.9	39.9	0.12	0.28	0.25	200	162.6								
C[C@]12CC[C@@H]3c4ccc(O)cc4CC[C@H]3[C@@H]1C[C@@H](OC(=O)c1ccc(S(N)(=O)=O)cc1)[C@@H]2O [Compound 4, 3,17β-Dihydroxyestra-1,3,5(10)-trien-16α-yl 4′-sulfamoylbenzoate]	2.6																	
C[C@]12CC[C@@H]3c4ccc(O)cc4CC[C@H]3[C@@H]1C[C@@H](OC(=O)c1cccc(S(N)(=O)=O)c1)[C@@H]2O [Compound 10, 3,17β-Dihydroxyestra-1,3,5(10)-trien-16α-yl 3′-sulfamoylbenzoate]	0.4	only very weak bonds were detected	5.7	18.6	10.7	0.015	0.49	0.028	450	378.2								
C[C@]12CC[C@@H]3c4ccc(OS(N)(=O)=O)cc4CC[C@H]3[C@@H]1CC[C@@H]2O [Estradiol-3-sulfamate, reference compound]	100								157 ± 10.6									
C[C@]12CC[C@@H]3c4ccc(O)cc4CC[C@H]3[C@@H]1C[C@@H](O)[C@@H]2O [Estriol]			7.6	110.7	79					>1000			<0.1	<0.008	<0.08	clearly enhanced	not enhanced or is not enhanced to the same extent	did not bring about a doubling of the uterus weight
